Entries after “also recorded” stand apart in the source; their conditions may differ. Square brackets hold non-standard residues; d marks the D form. Peptide text beside a SMILES is read from it. Sar = CNCC(=O)O
Tests used:
peptide transporter [1] = assay: Uptake of [^3H]Gly-Sar by MDCKII-MDR1 cells in the presence of drug/derivative; assay type: cell-based, dog; details: for Inhibition of [^3H]Gly-Sar uptake: MDCKII-MDR1 cells, quinidine and derivatives; for Uptake of [^3H]Gly-Sar: control 0.033
Procedure: Studies were performed to investigate whether derivatives of quinidine are substrates for a nutrient peptide transport system.
Unlabeled Gly-Sar at concentrations of 1 and 2 mM reduced the uptake of [^3H]Gly-Sar from 0.033 to 0.026 pmol/(min mg) (20%) and 0.019 pmol/(min mg) (41%), respectively (FIG. 9).

[2] = test system: MDCKII-MDR1 cell monolayers; assay: in vitro
Procedure: (§1) Confluency was assessed by light microscopy.
(§2) Transport studies were conducted with MDCKII-MDR1 cell monolayers grown on 12-well Transwell® inserts (12 mm diameter). The medium was aspirated, and cell monolayers were washed three times (10 minutes per wash) with DPBS (pH 7.4). Volumes of the apical and basolateral chambers were 0.5 and 1.5 ml, respectively. Transport experiments were conducted for a period of 3 hours. Aliquots (200 μl) were withdrawn at predetermined time intervals, i.e., 15, 30, 45, 60, 90, 120, 150, and 180 minutes and replaced with fresh DPBS (pH 7.4) to maintain sink conditions. Samples were stored at −80° C. until further analysis. Experiments designed to investigate the effect of inhibitors involved preincubation of the cells with the inhibitor for a period of 30 minutes (inhibitor solution was added to both donor and receiver chambers) prior to the addition of the drug solution (also containing the inhibitor) to initiate the transport study. All transport experiments were performed at 37° C.
(§3) The HPLC system comprised an HP 1050 pump, an Agilent 1100 series fluorescence detector, and an Alcott autosampler (model 718 HPLC). A C(8) Luna column (250 mm×4.6 mm); Phenomenex, Torrance, Calif.) was employed in the analysis. The mobile phase consisted of 20 mM phosphate buffer (pH adjusted to 2.5) and 12% acetonitrile as the organic modifier. The parent drug and the derivative were detected with a fluorescence detector (λex=240 nm, λem=450 nm).
(§4) Linear regression analysis of the amounts transported as a function of time yielded the rate of transport across the cell monolayer (dM/dt). The rate divided by the cross-sectional are available for transport (A) generated the steady-state flux as shown in Equation 1. flux=(dM/dt)/A (Equation 1) Permeability was calculated by normalizing the steady-state flux to the donor concentration (Cd) of the drug according to Equation 2. Permeability=flux/Cd (Equation 2)
(§5) Transport studies with MDCKII-MDR1 cell monolayers were carried out as described in Example 7. […] Detection issues of the prodrug and/or parent drug in the acceptor chamber was considered for the selection of prodrug concentration. Aliquots (200 μL) were withdrawn at predetermined time intervals, i.e., 15, 30, 45, 60, 90, 120, 150, 180 min, respectively, and replaced with fresh DPBS, pH 7.4, to maintain sink conditions. Dilutions were taken into account for the calculations. Samples were stored at −80° C. until further analysis. All transport experiments were performed at 37° C.
(§6) The HPLC system was comprised of HP 1050 pump, Waters dual wavelength absorbance UV detector, and an Alcott auto sampler (model 718AL HPLC). A C(8) Luna column (250 mm×4.6 mm; Phenomenex, Torrance, Calif.) was employed for the separation of analytes. Mobile phase composed of acetonitrile:water:triethylamine (55:44:1%, v/v/v) and the pH was adjusted to 6.5 with o-phosphoric acid. Flow rate was maintained at 0.8 mL/min and detection wavelength was set at 240 nm.
(§7) Intact prodrug transported and breakdown products, formed during the transport study, were analyzed. Cumulative amount of drug transported (the sum of prodrug and regenerated parent drug) was plotted as a function of time. Apparent permeabilities (Papp) were determined from the linear portion of the cumulative amount versus time plot.

in vitro = details: dog, MDCK-MDR1
Procedure: as §1, §2, §3, §4, §5, §6, §7

[3] = test system: MDCKII-MDR1 cell homogenates; details: dog
Procedure: Confluent MDCKII-MDR1 cells were washed three times with Dulbecco's phosphate buffered saline (DPBS) (130 mM NaCl, 7.5 mM Na2HPO4, 1.5 mM KH2PO4, 0.5 mM MgSO4, 1 mM CaCl2, […] and 5 mM glucose). Cells were then isolated with the aid of a mechanical scrapper and suspended in two volumes of water and homogenized (Multipro variable speed homogenizer, DREMEL; Racine, Wis.). Suitable dilutions were made to achieve a final protein concentration of 0.25 mg/mL. Protein content was determined according to the method of Bradford (Bradford, Anal. Biochem., 72, 248 (1976)) with BioRad protein estimation kit.
An aliquot (800 μL) of the cell homogenate was incubated with 200 μL (30 μg/mL) prodrug solution at 37° C. in a shaking water bath (60 rpm). One hundred microlitres samples were withdrawn at predetermined time points and an equal volume of ice-cold acetonitrile:methanol (5:4) mixture was added to stop the enzymatic reaction. Samples were stored at −80° C. until further analysis.

[4] = buffer
Procedure: Stability in DPBS was determined by incubating 200 μL prodrug solution with 800 μL DPBS with pH adjusted to 5 and 7.4. Slope of the line of “log percentage prodrug remaining versus time” plot was employed to calculate the degradation rate constants.

P-gp [5] = target: P-gp (Homo sapiens, UniProt P08183); details: MDCKII-MDR1 cells
Text: Two different concentrations were employed to examine the effect of prodrug concentration on P-gp inhibition.

peptide transporter [6] = assay: Uptake of [^3H]Gly-Sar by MDCKII-MDR1 cells in the presence of drug/derivative; assay type: cell-based, dog; details: for Effect on [^3H]Gly-Sar uptake: 100 μM SQV or prodrug; for Reduction of [^3H]Gly-Sar uptake: 100 μM prodrug; for Concentration dependence of inhibition of [^3H]Gly-Sar uptake: SQV prodrugs, different concentrations up to 100 μM
P-gp [7] = details: rabbit, in vivo
Procedure: Adult male New Zealand albino rabbits weighing between 2-2.5 kg were obtained from Myrtle's rabbitry, Thompson Station, Tenn. Throughout an experiment, the animals were kept under anesthesia with ketamine HCl (35 mg/kg) and xylazine (3.5 mg/kg) given intramuscularly every hour. Pupils were dilated with two drops of 1% tropicamide prior to implantation of microdialysis probes. Linear probes were implanted in the anterior chamber using 25-gauge needles. They were inserted across the cornea just above the corneal scleral limbus so that they traversed through the center of the anterior chamber to the opposite end of the cornea, as evidenced by microscopic examination. The sample-collecting end of the linear probe was inserted carefully into the beveled edge end of the needle. The needle was retracted slowly, leaving the probe in the dialyzing membrane in the middle of the anterior chamber. The outlets of the probes were fixed to prevent any disturbances during sample collection. The probes were perfused with isotonic IPBS (pH 7.4) at a flow rate of 2 μl/min using a CMA/100 microinjection pump. After probe implantation, the animals were allowed to stabilize for 2 hours prior to the initiation of any study. […] Samples obtained in the study were analyzed by a scintillation counter (LS 6500, Beckman Instruments, Inc., Fullerton, Calif.).

P-gp (human MDR1) = assay: in vitro; details: dog, MDCK-MDR1, pH 7.4
Procedure: as §1, §2, §3, §4, §5, §6, §7

P-gp [8] = target: P-gp (Oryctolagus cuniculus, UniProt Q6UUW3); details: rPCEC cells, equimolar concentrations
Sequence of P-gp (Oryctolagus cuniculus, UniProt Q6UUW3) (Q6UUW3 1-1279): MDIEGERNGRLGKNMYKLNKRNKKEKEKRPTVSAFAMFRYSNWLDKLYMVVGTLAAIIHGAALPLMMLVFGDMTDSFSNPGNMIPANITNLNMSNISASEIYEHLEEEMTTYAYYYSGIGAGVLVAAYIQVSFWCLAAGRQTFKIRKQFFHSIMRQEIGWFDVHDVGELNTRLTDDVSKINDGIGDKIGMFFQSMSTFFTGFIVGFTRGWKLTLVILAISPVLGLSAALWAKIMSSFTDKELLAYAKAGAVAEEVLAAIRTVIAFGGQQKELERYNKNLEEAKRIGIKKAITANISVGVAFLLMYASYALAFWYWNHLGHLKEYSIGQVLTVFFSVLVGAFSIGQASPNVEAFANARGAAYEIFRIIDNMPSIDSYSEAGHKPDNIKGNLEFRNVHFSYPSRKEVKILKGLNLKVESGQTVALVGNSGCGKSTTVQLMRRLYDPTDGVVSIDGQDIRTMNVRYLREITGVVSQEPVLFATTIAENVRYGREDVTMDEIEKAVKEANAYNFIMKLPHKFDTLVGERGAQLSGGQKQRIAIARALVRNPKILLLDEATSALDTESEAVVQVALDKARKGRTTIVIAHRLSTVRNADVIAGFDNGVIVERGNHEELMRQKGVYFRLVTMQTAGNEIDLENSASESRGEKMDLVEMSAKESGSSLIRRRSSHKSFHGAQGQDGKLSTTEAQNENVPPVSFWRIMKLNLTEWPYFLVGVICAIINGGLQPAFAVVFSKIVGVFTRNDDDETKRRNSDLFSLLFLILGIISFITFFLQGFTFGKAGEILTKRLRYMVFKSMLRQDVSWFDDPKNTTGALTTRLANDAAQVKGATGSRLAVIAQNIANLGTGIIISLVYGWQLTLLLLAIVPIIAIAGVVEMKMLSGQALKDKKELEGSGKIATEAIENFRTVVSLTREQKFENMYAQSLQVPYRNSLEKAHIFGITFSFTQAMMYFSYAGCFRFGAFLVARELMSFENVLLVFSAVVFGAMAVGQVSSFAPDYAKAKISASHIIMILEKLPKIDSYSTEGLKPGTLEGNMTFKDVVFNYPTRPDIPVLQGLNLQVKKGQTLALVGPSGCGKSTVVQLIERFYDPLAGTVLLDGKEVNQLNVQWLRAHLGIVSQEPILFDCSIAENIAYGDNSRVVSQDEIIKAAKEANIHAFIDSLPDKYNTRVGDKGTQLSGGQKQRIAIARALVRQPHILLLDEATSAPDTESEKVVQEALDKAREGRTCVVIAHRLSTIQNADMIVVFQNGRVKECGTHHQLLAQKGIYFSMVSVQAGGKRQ
Procedure: Adult male New Zealand albino rabbits weighing between 2-2.5 kg were obtained from Myrtle's rabbitry, Thompson Station, Tenn. Rabbit corneas were excised and washed thoroughly with DPBS, blotted dry, and transferred to sterile culture dishes containing 0.5 ml trypsin (0.25%) or 1.2 U/ml protease (Dispase II, Roche Molecular Biochemical). The corneas were placed upside down (with the concave surface touching the protease solution) and incubated at 37° C. for 30 minutes. The epithelial cells were stripped off with gentle scraping from peripheral areas (1-1.5 mm from the limbus) to the center. Care was taken to peel only the epithelial layer and not the underlying stromal layer, because that would contaminate the epithelial cells with keratinocytes. Cells were washed with MEM (Life Technologies, Grand Island, N.Y.) and placed in culture dishes. After 12 hours (when most of the cells had attached to the bottom), the MEM was removed and fresh MEM supplemented with insulin (5 μg/ml), transferrin (5 μg/ml), sodium selinite (5 μg/ml), amphotericin B (0.25 μg/ml), polymyxin B sulfate (0.5 μg/ml), penicillin (100 U/ml), streptomycin (100 μg/ml), human recombinant epidermal growth factor (10 ng/ml), and bovine pituitary extract (50 μg/ml) were added. The medium was changed twice a week, and the cells were subcultured every 7 to 10 days (subculture ratio, 1:5). […]

Sequence of P-gp (Homo sapiens, UniProt P08183) (P08183 whole entry): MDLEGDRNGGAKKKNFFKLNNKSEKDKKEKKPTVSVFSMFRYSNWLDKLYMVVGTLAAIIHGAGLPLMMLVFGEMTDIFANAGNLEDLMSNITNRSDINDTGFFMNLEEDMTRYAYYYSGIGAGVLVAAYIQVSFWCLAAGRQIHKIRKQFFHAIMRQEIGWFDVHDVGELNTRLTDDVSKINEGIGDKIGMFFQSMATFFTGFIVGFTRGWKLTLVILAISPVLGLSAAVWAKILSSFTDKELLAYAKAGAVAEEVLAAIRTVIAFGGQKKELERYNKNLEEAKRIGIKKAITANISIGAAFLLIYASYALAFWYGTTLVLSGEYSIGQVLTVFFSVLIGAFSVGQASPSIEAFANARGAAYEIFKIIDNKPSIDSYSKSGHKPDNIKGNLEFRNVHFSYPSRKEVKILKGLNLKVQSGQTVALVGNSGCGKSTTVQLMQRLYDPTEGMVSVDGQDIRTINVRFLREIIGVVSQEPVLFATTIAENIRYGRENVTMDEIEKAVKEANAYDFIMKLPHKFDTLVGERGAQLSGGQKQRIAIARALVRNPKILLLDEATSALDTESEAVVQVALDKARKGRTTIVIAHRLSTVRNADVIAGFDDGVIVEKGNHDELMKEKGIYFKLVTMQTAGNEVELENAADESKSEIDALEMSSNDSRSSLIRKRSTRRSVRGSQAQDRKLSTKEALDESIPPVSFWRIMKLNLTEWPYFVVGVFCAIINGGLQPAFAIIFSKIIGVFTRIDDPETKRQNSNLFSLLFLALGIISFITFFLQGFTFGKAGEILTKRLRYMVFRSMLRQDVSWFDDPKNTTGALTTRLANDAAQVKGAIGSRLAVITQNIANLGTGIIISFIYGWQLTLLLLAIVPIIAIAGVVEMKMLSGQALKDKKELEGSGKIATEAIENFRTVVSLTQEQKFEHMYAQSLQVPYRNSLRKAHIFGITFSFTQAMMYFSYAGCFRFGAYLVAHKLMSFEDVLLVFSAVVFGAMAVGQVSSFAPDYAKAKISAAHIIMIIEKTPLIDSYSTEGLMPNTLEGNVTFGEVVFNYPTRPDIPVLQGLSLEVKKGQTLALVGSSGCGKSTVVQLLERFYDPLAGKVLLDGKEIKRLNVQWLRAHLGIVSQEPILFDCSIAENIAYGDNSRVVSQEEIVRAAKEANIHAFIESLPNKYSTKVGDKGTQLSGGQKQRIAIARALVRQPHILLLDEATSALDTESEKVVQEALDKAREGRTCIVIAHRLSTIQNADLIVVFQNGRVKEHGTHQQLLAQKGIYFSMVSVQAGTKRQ

C=CC1CN2CCC1CC2C(OC(=O)C(N)C(C)C)c1ccnc2ccc(OC)cc12 (centres unmarked) [Val-Q, Val-Quinidine]
Inhibition of [^3H]Gly-Sar uptake (peptide transporter [1]): concentration dependent inhibition | Difference between AP-BL and BL-AP permeability ([2]; MDCK-MDR1): equivalent | Apparent permeability Papp AP-BL ([2]; MDCK-MDR1, pH 7.4): 5.13±0.49×10^−6 cm.s^−1 | Apparent permeability Papp BL-AP ([2]; MDCK-MDR1, pH 7.4): 6.17±1.28×10^−6 cm.s^−1

OC[C@@H](O)[C@@H](O)[C@H](O)[C@H](O)CO [[^14C]mannitol, mannitol, reference compound]
Papp (in vitro): < 0.2 ×10⁻⁶ cm/s | [^14C]mannitol transport across the cell monolayer ([2]; dog, MDCK-MDR1): < 0.5 %/h

CC(C)[C@H](NC(=O)CN)C(=O)O[C@H](CN1C[C@H]2CCCC[C@H]2C[C@H]1C(=O)NC(C)(C)C)[C@H](Cc1ccccc1)NC(=O)[C@H](CC(N)=O)NC(=O)c1ccc2ccccc2n1 [Gly-Val-SQV, Gly-Val-saquinavir]
Half-life (t1/2) in MDCK-MDR1 cell homogenates [3]: 1.75 ± 0.11 h | Half-life (t1/2) in DPBS, pH 5 [4]: 34.5±0.85 h | Half-life (t1/2) in DPBS, pH 7.4 [4]: 13.1±0.33 h | Concentration at which the prodrug saturates P-gp (P-gp [5]): 75 µM | Effect on [^3H]Gly-Sar uptake (peptide transporter [6]): significantly decreased | Reduction of [^3H]Gly-Sar uptake (peptide transporter [6]): 42% | Concentration dependence of inhibition of [^3H]Gly-Sar uptake (peptide transporter [6]): concentration dependent inhibition | Efflux ratio (BL Papp/AP Papp) ([2]; MDCK-MDR1): 6

C=C[C@H]1CN2CC[C@H]1C[C@@H]2[C@@H](OC(=O)[C@@H](NC(=O)[C@@H](N)C(C)C)C(C)C)c1ccnc2ccc(OC)cc12 [Val-Val-Q, Val-Val-Quinidine]
Inhibition of [^3H]Gly-Sar uptake (peptide transporter [1]): concentration dependent inhibition

C=C[C@H]1C[N@@]2CC[C@H]1C[C@@H]2[C@@H](O)c1ccnc2ccc(OC)cc12 [quinidine, reference compound]
Inhibition of the P-gp mediated efflux pump (P-gp [7]): caused inhibition | Inhibition of [^3H]Gly-Sar uptake (peptide transporter [1]): did not demonstrate any inhibition | Difference between AP-BL and BL-AP permeability ([2]; MDCK-MDR1): three fold difference | Papp A→B at 3 h, 10 μM (P-gp (human MDR1)): 6.5 ×10⁻⁶ cm/s | Papp B→A at 3 h, 10 μM (P-gp (human MDR1)): 18.3 ×10⁻⁶ cm/s | Inhibitory effect on P-gp mediated efflux ([^3H]erythromycin uptake) (P-gp [8]): high inhibitory effect

CN(CC(=O)O)C(=O)CN [Gly-Sar, Glycyl-Sarcosine] (H-Gly-[Sar]-OH)
Reduction of [^3H]Gly-Sar uptake (peptide transporter [1]; 1 mM unlabeled Gly-Sar): 20% | Uptake of [^3H]Gly-Sar (peptide transporter [1]; 1 mM unlabeled Gly-Sar): 0.026 pmol/min/mg | Reduction of [^3H]Gly-Sar uptake (peptide transporter [1]; 2 mM unlabeled Gly-Sar): 41% | Uptake of [^3H]Gly-Sar (peptide transporter [1]; 2 mM unlabeled Gly-Sar): 0.019 pmol/min/mg | Concentration dependence of [^3H]Gly-Sar cellular accumulation (peptide transporter [1]; unlabeled Gly-Sar 1 mM and 2 mM): concentration dependent decrease; also recorded: concentration dependent reduction

CC(C)[C@H](N)C(=O)N[C@H](C(=O)O[C@H](CN1C[C@H]2CCCC[C@H]2C[C@H]1C(=O)NC(C)(C)C)[C@H](Cc1ccccc1)NC(=O)[C@H](CC(N)=O)NC(=O)c1ccc2ccccc2n1)C(C)C [Val-Val-SQV, Val-Val-saquinavir]
Half-life (t1/2) in MDCK-MDR1 cell homogenates [3]: 6.6 ± 0.56 h | Half-life (t1/2) in DPBS, pH 5 [4]: 94.8±21.4 h | Half-life (t1/2) in DPBS, pH 7.4 [4]: 18.3±1.4 h | Concentration at which the prodrug saturates P-gp (P-gp [5]): 50 µM | Effect on [^3H]Gly-Sar uptake (peptide transporter [6]): significantly decreased | Reduction of [^3H]Gly-Sar uptake (peptide transporter [6]): 35% | Concentration dependence of inhibition of [^3H]Gly-Sar uptake (peptide transporter [6]): concentration dependent inhibition | Efflux ratio (BL Papp/AP Papp) ([2]; MDCK-MDR1): 6

CC(C)(C)NC(=O)[C@@H]1C[C@@H]2CCCC[C@@H]2CN1C[C@@H](O)[C@H](Cc1ccccc1)NC(=O)[C@H](CC(N)=O)NC(=O)c1ccc2ccccc2n1 [SQV, saquinavir, reference compound]
Effect on [^3H]Gly-Sar uptake (peptide transporter [6]): did not demonstrate any significant inhibition
